Experimental data from the supplement of paper PMC11061612.

Tests used:
Experiment in all cases: Bliss excess, mean over the matrix (fraction); higher = more synergy
[1] = test system: PFSK-1 (Other Solid Carcinomas)
Method in brief: (§1)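 After 24 hours at 37°C and 5% CO2 in 1536-well plates, cells in DMEM/F12 or RPMI plus 10% FBS received two-drug dose matrices for 72 hours. Viability came from CellTiter-Glo 2.0 luminescence and was scaled as inhibition, anchored at 0 by vehicle wells and at 1 by blank wells. Combination Emax is taken as the second-highest inhibition in the matrix, and Bliss excess as the observed combination effect less EA + EB − EA·EB, with EA and EB the single-agent effects.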

[2] = test system: EMC-BAC-2 (Non-Small Cell Lung Carcinoma)
Method in brief: as §1

[3] = test system: OCUB-M (Breast Carcinoma)
Method in brief: as §1

[4] = test system: OVISE (Ovarian Carcinoma)
Method in brief: as §1

[5] = test system: OCUM-1 (Gastric Carcinoma)
Method in brief: as §1

[6] = test system: HuP-T3 (Pancreatic Carcinoma)
Method in brief: as §1

[7] = test system: EW-3 (Ewing's Sarcoma)
Method in brief: as §1

[8] = test system: PF-382 (T-Lymphoblastic Leukemia)
Method in brief: as §1

[9] = test system: KYSE-50 (Esophageal Squamous Cell Carcinoma)
Method in brief: as §1

[10] = test system: H-EMC-SS (Chondrosarcoma)
Method in brief: as §1

[11] = test system: EW-18 (Ewing's Sarcoma)
Method in brief: as §1

[12] = test system: NCI-H513 (Other Solid Carcinomas)
Method in brief: as §1

[13] = test system: DG-75 (Burkitt's Lymphoma)
Method in brief: as §1

[14] = test system: GOTO (Neuroblastoma)
Method in brief: as §1

[15] = test system: LC4-1 (B-Lymphoblastic Leukemia)
Method in brief: as §1

[16] = test system: EW-13 (Ewing's Sarcoma)
Method in brief: as §1

[17] = test system: BT-20 (Breast Carcinoma)
Method in brief: as §1

[18] = test system: EBC-1 (Squamous Cell Lung Carcinoma)
Method in brief: as §1

[19] = test system: NB7 (Neuroblastoma)
Method in brief: as §1

[20] = test system: LOU-NH91 (Squamous Cell Lung Carcinoma)
Method in brief: as §1

Row | Compound | Bliss excess [1] | Bliss excess [2] | Bliss excess [3] | Bliss excess [4] | Bliss excess [5] | Bliss excess [6] | Bliss excess [7] | Bliss excess [8] | Bliss excess [9] | Bliss excess [10] | Bliss excess [11] | Bliss excess [12] | Bliss excess [13] | Bliss excess [14] | Bliss excess [15] | Bliss excess [16] | Bliss excess [17] | Bliss excess [18] | Bliss excess [19] | Bliss excess [20]
1 | NC1(C(=O)N[C@@H](CCO)c2ccc(Cl)cc2)CCN(c2ncnc3[nH]ccc23)CC1 [Capivasertib] + CCN(CCO)CCCOc1ccc2c(Nc3cc(CC(=O)Nc4cccc(F)c4)[nH]n3)ncnc2c1 [AZD2811] (first compound max 10 µM, 7x7, partner max 1 µM) | -0.027 | -0.0124 | -0.0217 | 0.0015 | 0.0378 | -0.0317 | 0.0117 | -0.0497 | 0.0278 | -0.0105 | -0.0358 | -0.0479 | 0.04 | 0.0047 | -0.0221 | 0.007 | -0.0003 | 0.0429 | 0.0377 | -0.0075
2 | CN(CCO)CC[C@H](CSc1ccccc1)Nc1ccc(S(=O)(=O)NC(=O)c2ccc(N3CCC([C@@H](O)c4ccccc4-c4ccc(Cl)cc4)CC3)cc2)cc1S(=O)(=O)C(F)(F)F [AZD4320] + C[C@@H]1COCCN1C2=NC(=NC(=C2)C3(CC3)[S@](=N)(=O)C)C4=C5C=CNC5=NC=C4 [AZD6738] (first compound max 1 µM, 7x7, partner max 10 µM) | 0.0409 | -0.0695 | 0.0055 | -0.0206 | -0.0134 | -0.0695 | -0.0236 | -0.0126 | -0.0537 | -0.0351 | -0.0539 | -0.0586 | -0.0217 | -0.0126 | 0.0481 | -0.0009 | 0.0778 | -0.015 | -0.0181 | 0.0126
3 | CN(CCO)CC[C@H](CSc1ccccc1)Nc1ccc(S(=O)(=O)NC(=O)c2ccc(N3CCC([C@@H](O)c4ccccc4-c4ccc(Cl)cc4)CC3)cc2)cc1S(=O)(=O)C(F)(F)F [AZD4320] + C=CCn1c(=O)c2cnc(Nc3ccc(N4CCN(C)CC4)cc3)nc2n1-c1cccc(C(C)(C)O)n1 [AZD1775] (first compound max 1 µM, partner max 1 µM) | 0.0344 | -0.0078 | 0.075 | 0.0598 | 0.03 | -0.0081 | 0.11 | -0.0132 | -0.0682 | -0.0004 | 0.0349 | 0.0699 | -0.0232 | -0.0268 | 0.0369 | 0.0172 | 0.0557 | 0.0187 | 0.0051 | 0.105
4 | Cc1c2c(nn1C)CSCc1cc(n(C)n1)CSc1cc(c3ccccc3c1)OCCCc1c(C(=O)O)n(C)c3c-2c(Cl)ccc13 [AZD5991] + CC1(C)CCC(CN2CCN(c3ccc(C(=O)NS(=O)(=O)c4ccc(NCC5CCOCC5)c([N+](=O)[O-])c4)c(Oc4cnc5[nH]ccc5c4)c3)CC2)=C(c2ccc(Cl)cc2)C1 [Venetoclax] (first compound max 1 µM, 7x7, partner max 1 µM) | 0.0721 | -0.0512 | 0.006 | 0.0031 | -0.0182 | -0.0358 | 0.125 | 0.0223 | -0.0575 | 0.0646 | 0.046 | -0.0072 | -0.0246 | 0.0588 | 0.0705 | 0.0893 | 0.0755 | -0.0333 | -0.0612 | -0.0589
5 | NC1(C(=O)N[C@@H](CCO)c2ccc(Cl)cc2)CCN(c2ncnc3[nH]ccc23)CC1 [Capivasertib] + Cn1cnc2c(F)c(Nc3ccc(Br)cc3Cl)c(C(=O)NOCCO)cc21 [Selumetinib] (first compound max 10 µM, 7x7, partner max 10 µM) | 0.0717 | -0.0445 | 0.0081 | -0.0063 | -0.0299 | -0.0559 | -0.0091 | 0.0266 | -0.036 | 0.0635 | -0.0219 | -0.0383 | 0.0439 | 0.0355 | 0.147 | 0.0097 | 0.0036 | 0.0557 | -0.0045 | -0.0027
6 | CN(CCO)CC[C@H](CSc1ccccc1)Nc1ccc(S(=O)(=O)NC(=O)c2ccc(N3CCC([C@@H](O)c4ccccc4-c4ccc(Cl)cc4)CC3)cc2)cc1S(=O)(=O)C(F)(F)F [AZD4320] + CCN(CCO)CCCOc1ccc2c(Nc3cc(CC(=O)Nc4cccc(F)c4)[nH]n3)ncnc2c1 [AZD2811] (first compound max 1 µM, 7x7, partner max 1 µM) | -0.0176 | -0.0251 | 0.0283 | -0.0008 | 0.0648 | -0.0384 | 0.0814 | 0.0518 | -0.0211 | 0.0545 | -0.0795 | -0.0283 | -0.0224 | 0.0053 | -0.0049 | -0.0076 | 0.0212 | 0.0178 | 0.0258 | 0.0995
